In the NIST ThermoML archive (doi:10.1021/acs.jced.8b00812):

Details: Liquid; for viscosity: Capillary tube (Ostwald / Ubbelohde) method; for mass density: Vibrating tube method

CCCCO [butan-1-ol]
Details	mass density [kg/m3]	viscosity [mPa·s]
298.12 K, 2010 kPa	806.8	2.608
298.12 K, 3910 kPa	808.2	2.657
298.12 K, 6020 kPa	809.8	2.708
298.12 K, 8030 kPa	811.2	2.752
298.12 K, 9910 kPa	812.5	2.797
298.12 K, 16020 kPa	816.6	2.94
298.12 K, 19030 kPa	818.5	3.018
298.12 K, 22000 kPa	820.4	3.092
298.12 K, 25020 kPa	822.3	3.166
298.12 K, 28000 kPa	824	3.237
298.12 K, 30010 kPa	825.1	3.287
298.13 K, 13010 kPa	814.6	2.867
303.15 K, 2010 kPa	803.3	2.351
303.15 K, 4000 kPa	804.8	2.393
303.15 K, 5980 kPa	806.3	2.436
303.15 K, 8010 kPa	807.8	2.479
303.15 K, 9990 kPa	809.2	2.522
303.15 K, 12990 kPa	811.3	2.586
303.15 K, 15990 kPa	813.3	2.65
303.15 K, 22010 kPa	817.3	2.779
303.15 K, 25010 kPa	819.1	2.843
303.15 K, 27970 kPa	820.9	2.912
303.15 K, 29990 kPa	822.1	2.957
303.16 K, 19000 kPa	815.3	2.714
313.15 K, 10020 kPa	801.8	1.969
313.15 K, 12980 kPa	803.9	2.019
313.15 K, 22020 kPa	810.2	2.182
313.15 K, 25010 kPa	812.2	2.237
313.16 K, 1990 kPa	795.5	1.832
313.16 K, 3980 kPa	797.1	1.868
313.16 K, 5990 kPa	798.7	1.902
313.16 K, 7980 kPa	800.2	1.935
313.16 K, 15980 kPa	806.1	2.073
313.16 K, 19010 kPa	808.2	2.125
313.16 K, 27990 kPa	814.1	2.292
313.16 K, 29990 kPa	815.3	2.329
323.14 K, 2000 kPa	787.9	1.421
323.14 K, 3920 kPa	789.6	1.446
323.14 K, 6030 kPa	791.3	1.473
323.14 K, 8000 kPa	792.9	1.499
323.14 K, 10020 kPa	794.5	1.525
323.14 K, 13040 kPa	796.9	1.565
323.14 K, 16050 kPa	799.2	1.603
323.14 K, 19000 kPa	801.3	1.646
323.14 K, 21990 kPa	803.4	1.684
323.14 K, 24970 kPa	805.5	1.723
323.14 K, 28000 kPa	807.5	1.759
323.14 K, 29970 kPa	808.8	1.785
